Starred links: 1 amine or outer side, 2 acyl side, 3 side chain; linkers in the order of their positions; H or OH if unused. Positions of bridges follow the written chain, without caps; N, C: chain ends. Non-standard residues stand in square brackets, D forms with d. Residues, ends and D or L forms follow the SMILES beside them. *: point of attachment. hTyr(3S-OH,4S-OH,3'-OSO3H) = N[C@H](C(=O)O)[C@H](O)[C@@H](O)c1ccc(O)c(OS(=O)(=O)O)c1; Orn(4R-OH,5R-OH) = O=C([C@H](C[C@@H](O)[C@@H](O)N[*:3])N[*:1])[*:2]; Pro(3S-OH,4S-Me) = C[C@H]1CN[C@H](C(=O)O)[C@H]1O; X1 = CCCCCOc1ccc(-c2cc(-c3ccc(C(=O)*)cc3)no2)cc1; Gln(3R-OH) = NC(=O)C[C@@H](O)[C@H](N)C(=O)O; Hyp = O=C(O)[C@@H]1C[C@@H](O)CN1

The clearance is a measure of how efficiently the substance is removed, as volume per time. Low readings indicate a low capacity for elimination, high ones a high capacity for elimination.

One data set has as its target Albumin (Homo sapiens, UniProt P02768). Kind of data set: Binding affinity to human serum albumin in cell-free system.
Data set [1] can be described thus: Systemic clearance in analbuminemic Nagase rat plasma at 1 mg/kg, iv administered as single dose by high-performance liquid chromatography. In kind it is ADME, organism-based. On the set-up: dose 1 mg/kg, route intravenous.
A short description of data set [2]: Volume of distribution at steady state in analbuminemic Nagase rat plasma at 1 mg/kg, iv administered as single dose by high-performance liquid chromatography. In kind it is ADME, organism-based. On the set-up: dose 1 mg/kg, route intravenous. As to conditions: read-out: Vdss.
The test system of data set [3] is Rattus norvegicus. Briefly: Binding affinity to gamma globulin in rat plasma at 1 mg/kg, iv administered as single dose. In kind it is functional.
The subject of data set [4] is Rattus norvegicus. Kind of data set: Plasma protein binding in Sprague-Dawley rat at 1 mg/kg, iv administered as single dose by high-performance liquid chromatography. In kind it is ADME, organism-based. On the set-up: dose 1 mg/kg, route intravenous. As to conditions: in vivo.
Data set [5] concerns Rattus norvegicus. Kind of data set: Plasma protein binding in analbuminemic Nagase rat at 1 mg/kg, iv administered as single dose by high-performance liquid chromatography. In kind it is ADME, organism-based. On the set-up: dose 1 mg/kg, route intravenous. The settings on record: in vivo.
Data set [6] in a line: Systemic clearance in Sprague-Dawley rat plasma at 1 mg/kg, iv administered as single dose by high-performance liquid chromatography. In kind it is ADME, organism-based. Also noted: dose 1 mg/kg, route intravenous.
Data set [7] is described as follows: Volume of distribution at steady state in Sprague-Dawley rat plasma at 1 mg/kg, iv administered as single dose by high-performance liquid chromatography. As to conditions: read-out: Vdss. In kind it is ADME, organism-based. Also noted: dose 1 mg/kg, route intravenous.
Data set [8] relates to Rattus norvegicus. Kind of data set: Binding affinity to HDL in rat plasma at 1 mg/kg, iv administered as single dose. In kind it is ADME, organism-based. On the set-up: dose 1 mg/kg, route intravenous. As to conditions: in vivo.

Albumin, sequence (P02768 whole entry): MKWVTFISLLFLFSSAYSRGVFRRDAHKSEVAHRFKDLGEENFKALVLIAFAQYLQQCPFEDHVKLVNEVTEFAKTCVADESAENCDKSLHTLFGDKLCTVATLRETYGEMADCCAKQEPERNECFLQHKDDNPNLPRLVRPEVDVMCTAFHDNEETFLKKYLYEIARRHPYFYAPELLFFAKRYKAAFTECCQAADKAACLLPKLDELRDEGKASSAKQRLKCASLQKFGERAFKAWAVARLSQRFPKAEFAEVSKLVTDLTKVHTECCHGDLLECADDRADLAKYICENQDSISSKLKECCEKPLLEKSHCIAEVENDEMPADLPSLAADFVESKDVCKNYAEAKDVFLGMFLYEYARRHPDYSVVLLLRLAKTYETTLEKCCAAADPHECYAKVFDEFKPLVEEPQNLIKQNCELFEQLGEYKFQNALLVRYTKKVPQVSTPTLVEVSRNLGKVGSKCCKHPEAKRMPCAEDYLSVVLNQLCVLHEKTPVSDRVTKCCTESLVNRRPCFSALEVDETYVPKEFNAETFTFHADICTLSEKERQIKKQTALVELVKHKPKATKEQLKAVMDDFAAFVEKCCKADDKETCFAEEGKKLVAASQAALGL

For `CCCCCOc1ccc(-c2cc(-c3ccc(C(=O)N[C@H]4C[C@@H](O)[C@@H](O)NC(=O)[C@@H]5[C@@H](O)[C@@H](C)CN5C(=O)[C@H]([C@H](O)CC(N)=O)NC(=O)[C@H]([C@H](O)[C@@H](O)c5ccc(O)c(OS(=O)(=O)O)c5)NC(=O)[C@@H]5C[C@@H](O)CN5C(=O)[C@H]([C@@H](C)O)NC4=O)cc3)no2)cc1` [MICAFUNGIN] (X1-[Orn(4R-OH,5R-OH)]T[Hyp][hTyr(3S-OH,4S-OH,3'-OSO3H)][Gln(3R-OH)][Pro(3S-OH,4S-Me)]; lactam 1-C), the Activity at Albumin turned out to be 99.7%; in the data set with Rattus norvegicus [3], 35.1%; with Rattus norvegicus [4], 99.7%; in the data set with Rattus norvegicus [5], 99.8%; with Rattus norvegicus [8], 97.4%. Moreover, the clearance in data set [1] worked out at 0.072 L/h/kg; in data set [6], 0.069 L/h/kg. Further, the Vd in data set [2] was 0.52 L/kg; in [7], 0.54 L/kg.

Values taken from ChEMBL document CHEMBL1275491, “Role of plasma proteins in pharmacokinetics of micafungin, an antifungal antibiotic, in analbuminemic rats” (Antimicrob Agents Chemother, 2008).
